According to patent publication EP4311550A1, “CHLOROPHYLLIDE DERIVATIVES FOR USE IN THE PREVENTION OR TREATMENT OF BACTERIAL INFECTION” (Université de Liège, priority 2022, dated 2024):
Several values for one entry are separate records, joined by “and”; a condition that tells them apart may be missing. Equal values may be shown once.

Key:
Format in all cases: cell-based
[1] = system: Staphylococcus aureus (ATCC 25923); test: disk diffusion assay (growth inhibition halo); settings: for inhibition diameter (in brackets), in presence of light: Petri dishes incubated in presence of light; for inhibition diameter (in brackets), in the dark: incubation in the dark; for activity of inhibition of S. aureus growth: preparative HPLC fractions redissolved in MeOH/H2O 75%, disk diffusion assay, Figure 3
Protocol: The antimicrobial activity of these extracts was tested against Gram-positive and Gram-negative bacteria, yeasts and fungi by the diffusion disk method. The bacteria tested were Staphylococcus aureus (ATCC 25923), Enterococcus faecium (ATCC 19434), Escherichia coli (ATCC 25922), Pseudomonas aeruginosa (ATCC 27853), Klebsiella pneumoniae (ATCC 13883), methicillin resistant S. aureus (MRSA, ATCC43300) and Bacillus subtilis 168. The yeasts tested were Candida albicans (MUCL 29800), Saccharomyces cerevisiae (MUCL 31497) and the fungus Aspergillus niger (IHEM 3415). Mueller-Hinton II culture medium was used for cultivating S.aureus, E. coli, P. aeruginosa and K. pneumoniae; Brain Heart infusion Broth for E. faecium; Yeast Peptone Dextrose Broth for C. albicans and A. niger and S. cerevisiae. Agar plates with the appropriate medium were inoculated from the glycerol stock culture and Petri dishes were incubated overnight at 37°C for bacteria and at 28°C during 48 hours for the other strains. Colonies or spores (forA. niger) were then resuspended in a sterile solution of NaCl 0.85% to obtain a OD600 between 0.08 and 0.1 at 600 nm (which corresponds to tube of 0.5 on McFarland scale). Sterile cotton buds were soaked with the suspension and the micro-organisms were spread onto the Petri dish. Five sterile disks of chromatography paper (Whatman 3MM) with a diameter of 6,0 mm were placed on the agar plate. Two disks were respectively used for positive (1 mg/ml kanamycin for S. aureus, B. subtilis, E. coli and K. pneumoniae; 25 mg/ml kanamycin for E. faecium; 0,01 mg/ml ciprofloxacin for P. aeruginosa; 20 and 0,01 mg/ml cycloheximide for A. niger and S. cerevisiae, respectively; 0,1 mg/ml nystatin for C. albicans) and negative (MeOH/H2O 75/25%) controls. The remaining disks were used to test the compound of interest in triplicate. On each disk, 10 µl were loaded on the paper disk in two steps (2 x 5 µl) letting the paper dry between the two loadings. The Petri dishes were then incubated as described above. The antimicrobial activity of compounds of interest was visualized by its growth inhibition halo. […] Table 1: Inhibition diameter of the crude methanol 75% extract of spray-dried powder of Scenedemus sp. S4 and freeze-dried powders of D. armatus S0
The injection volume was fixed at 100 µL, the sample temperature in the autosampler was 10°C and the column was thermostatized at 37°C. The effluent was monitored by a photodiode array detector (Waters 2998 PDA detector, detection range: 200-800 nm) and collected using an automatic fraction collector (Waters Fraction Collector III, volume fraction: 500 µl). The collected fractions were then dried by using a vacuum centrifuge (Speedvac vacuum concentrator Savant SPD-111V, Thermo Scientific) and redissolved in 500 µL of MeOH/H2O 75% (75/25 v/v) and assayed for their capacity to inhibit the growth of S. aureus (disk assay as described above). Several fractions were selected for their antibacterial activity and preparative purifications were then carried out to obtain higher quantities of these compounds to allow their identification and subsequently their characterization.
Preparative chromatography was carried out by using an AKTA explorer system (GE Healthcare) and a preparative reverse phase column (Nucleodur C18 Gravity, 5 µm particule size, length x internal diameter: 25 cm x 1 cm) The chromatogram was recorded at 3 different wavelengths: 230 nm, 430 nm and 650 nm. The volume injected was 2 ml and the flow rate fixed at 2 ml/min. The same buffers as those used during analytical separation were selected and the gradient adapted to the column volume. Fraction size was adapted in such a way that one peak corresponded to one collected fraction. These fractions were then dried with a vacuum centrifuge and redissolved in 500 µL of MeOH/H2O 75%. Figure 3 presents the chromatogram obtained at 430 nm. […]

S. aureus (ATCC25923) = test: minimum inhibitory concentration by microdilution method; settings: 37°C, in the dark, 24 hours, Mueller-Hinton broth; 1:40 dilution factor of 58.03 µg/ml stock
Protocol: The minimum inhibitory concentration (MIC) of 13^2-hydroxy-methylchlorophyllide a for S. aureus was determined using the microdilution method. In a 48-well plate, 500 µl of Mueller-Hinton broth were placed in each well. Then, 500 µl of a dilute solution of 13^2-hydroxy-methylchlorophyllide a (stock solution in MeOH/H2O 75% diluted 5x by Mueller-Hinton broth) were added to the first well and serial 2-fold dilutions were made by transferring 500 µL from one well to the next. For the last well, 500 µl were discarded. A culture of S. aureus (ATCC25923) growing in exponential phase was diluted with sterile NaCl 0.85% (w/v) to obtain a bacterial suspension corresponding to 0.5 tube McFarland unit and then dispensed in 500 µl aliquots in the 48 well plate. After covering the 48-plate with its lid, it was incubated at 37°C under agitation and in the dark for 24 hours. The MIC was defined as the last dilution for which no visible bacterial growth was observed. The concentration of the active compound was determined on the basis of a calibration line obtained by injecting increasing volumes of a solution of pure chlorophyllide a standard on a reverse-phase HPLC column.

S. aureus [2] = test: growth curve (OD600) of an early exponential culture after addition of compound; settings: 1x and 4x the MIC, directly after addition, in the dark
Protocol: To further characterize the antibacterial action of 13^2-hydroxy-methylchlorophyllide a, a S. aureus culture in its early exponential phase of growth was submitted to the action of the chlorophyllide derivative. 100 ml of Mueller-Hinton broth were inoculated with an overnight culture of S. aureus to obtain a bacterial density corresponding to an optical density at 600 nm (OD^600) = 0.05. This culture was then incubated at 37°C under orbital shaking (240 rpm) by using an Aquatron (Infors) shaker. Once the cells enter early exponential growth (OD^600= 0.2), the culture was subdivided into three 20 ml cultures. For two cultures, 13^2-hydroxy-methylchlorophyllide a solubilized in MeOH/H2O 75% was added to reach a final concentration equal to 1x and 4x the MIC, respectively. For the third culture (control culture), a corresponding volume of MeOH/H2O without any chlorophyllide compound was added. In Figure 7 the optical density as a function of time is presented. The addition of the compounds occurred after 75 minutes. […] OD^600 remained unchanged during the whole experiment. This observation supports the hypothesis that no bacterial cell lysis takes place and that the antibacterial activity of 13^2-derivative is either bacteriostatic or non-lytic bactericidal.

red blood cell = test: sheep erythrocyte lysis assay; settings: after 120 min, at 4 x MIC, 37°C
Protocol: Activity of 13^2-hydroxy-methylchlorophyllide a on red blood cell was determined using a sheep erythocyte lysis assay. The lytic action was assessed on defibrinated sheep blood (bioTRADING). The erythrocytes were harvested by centrifugation (1500 rpm, 5 min) and washed 10 times with phosphate buffer saline (PBS). The red blood cells were then diluted 25 times with PBS and washed two more times to obtain a colourless supernatant after a centrifugation at 3000 g for 5 minutes. Samples of 1 ml of red blood cells (25 times diluted) are transferred in Eppendorf tubes and the 13^2-hydroxy-methylchlorophyllide a, dissolved in MeOH/H2O 75% (v/v), was added to obtain a final concentration equal to 1x or 4x MIC. The tubes are then incubated at 37°C at 300 rpm by using a thermomixer HC (Starlab) and 100 µl samples were withdrawn at time 0, 5, 10, 15, 30, 60 and 120 min. […]
The erythrocyte lysis was highlighted by the presence of haemoglobin in the supernatant and quantified by measuring the absorbance of the supernatant at 540 nm by means of a microplate reader Tecan infinite200 pro. The percentage lysis was calculated as follows: % lysis = (AChl^540 −APBS^540)/(ASDS 0.1%^540) × 100 [formula] wherein AChl is the absorbance of the tested compound, APBS is the measured absorbance of the PBS solution and ASDS is the absorbance of the SDS solution (positive control), each at the wavelength of 540 nm. […]

S. aureus [3] = test: viable count (CFU per ml) after addition of compound; settings: 1 or 4 x MIC, in the dark
Protocol: To distinguish between these two antibacterial activities, the number of viable S. aureus were determined by counting the colonies forming units (CFU) per ml of culture before the addition of the chlorophyllide derivative (t=0 h) and after 2 and 4 hours. […] The negative control is represented in black, while cultures treated with 1x and 4xMIC of purified S fraction are hatched and dotted respectively. The data presented are the average values of three independent experiments.
For culture without addition of chlorophyllide derivative (negative control, only addition of MeOH/H2O 75%) S. aureus maintained its growth and CFU/ml increased. On the contrary, once 13^2-hydroxy-methylchlorophyllide a was added (1 or 4 x MIC value in MeOH/H2O 75%, final concentration), the number of CFU/ml decreased of at least four logarithmic steps (4 log10). This means that the chlorophyllide derivative killed, in the dark, more than 99.99% of the bacterial population. The same result was observed after 2 and 4 hours even if for this latter culture a slight return of bacterial growth was observed.

Row | Compound | inhibition diameter (in brackets), in presence of light ([1]; disk diameter 6,0 mm) [cm] | inhibition diameter (in brackets), in the dark ([1]; disk diameter 6,0 mm) [cm] | activity of inhibition of S. aureus growth [1] | also measured
1 | 13^2-hydroxy-chlorophyllide a [listing 1 of 2 here] | 0.86 | 0.69 | – | –
2 | 13^2-hydroxy-chlorophyllide a [listing 2 of 2 here] | – | – | active | –
3 | 13^2-hydroxy-chlorophyllide b [listing 1 of 2 here] | 0.70 | 0.72 | – | –
4 | 13^2-hydroxy-chlorophyllide b [listing 2 of 2 here] | – | – | active | –
5 | 13^2-hydroxy-methylchlorophyllide a [listing 1 of 2 here] | 1.12 | 0.80 | – | MIC (S. aureus (ATCC25923)): 1.45 µg/mL; S. aureus growth (OD600) (S. aureus [2]): growth was stopped; activity of inhibition of S. aureus growth ([1]; listed as S): most active; percentage of red blood cell hemolysis (red blood cell): lower than 10%; decrease of the number of CFU/ml (S. aureus [3]; after 2 and 4 hours): ≥ 4 log10; bacterial population killed (S. aureus [3]): more than 99.99%
6 | 13^2-hydroxy-methylchlorophyllide a [listing 2 of 2 here] | – | – | active | –
7 | 13^2-hydroxy-methylchlorophyllide b | 0.87 | 0.73 | – | –
8 | 13^2-hydroxy-methylchlorophyllide b [K] | – | – | active | –
9 | NC[C@H]1O[C@H](O[C@H]2[C@H](O)[C@@H](O[C@H]3O[C@H](CO)[C@@H](O)[C@H](N)[C@H]3O)[C@H](N)C[C@@H]2N)[C@H](O)[C@@H](O)[C@@H]1O [Positive control, kanamycin, reference compound] | – | – | – | Inhibition diameter, Positive control ([1]; positive control disk on the plate of the named extract (1 mg/ml kanamycin for S. aureus), 10 µl per disk, disk diameter 6,0 mm): 2.10 cm and 1.62 cm
10 | C=CC1=C(C)C2=NC1=CC1=NC(=Cc3[n-]c4c(c3C)=C([O-])C(C(=O)OC)C=4C3=NC(=C2)C(C)C3CCC(=O)OC)C(CC)=C1C.[Mg+2] (centres unmarked) [methyl chlorophyllide a, reference compound] | – | 0.60 | – | –
